Measurements as given in ChEMBL document CHEMBL1201862, “PubChem BioAssay data set” (2004).
Calls of active or inactive are those of the source.

Key:
HeLa = assay: ATP-based viability loss in HeLa cells – cell-based, CellTiter-Glo luminescence, cherry-pick samples, cytotoxicity control for MITF activator project, dose response (AID 540259); format: functional; settings: Homo sapiens
[1] = target: T1, Carboxy-terminal domain RNA polymerase II polypeptide A small phosphatase 1 (Homo sapiens, UniProt Q9GZU7); assay: CTDSP1 inhibitors, concentration-response, biochemical, absorbance readout, ultra-high-throughput screen actives (AID 540297); format: functional
T1 sequence (Q9GZU7 whole entry): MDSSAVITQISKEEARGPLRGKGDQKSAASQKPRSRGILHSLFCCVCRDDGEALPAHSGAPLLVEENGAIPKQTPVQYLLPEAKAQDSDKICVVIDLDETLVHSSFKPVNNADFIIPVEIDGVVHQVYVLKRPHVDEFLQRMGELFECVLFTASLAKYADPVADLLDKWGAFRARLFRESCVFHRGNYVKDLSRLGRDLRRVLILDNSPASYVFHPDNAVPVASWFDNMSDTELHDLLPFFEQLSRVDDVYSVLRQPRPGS

[2] = viability of uninfected HEp-2 cells – cell-based, HTS, cytotoxicity control for RSV inhibitor project, dose response (AID 2410); format: functional; settings: human respiratory syncytial virus
Estrogen receptor = target: T2, Estrogen receptor (Homo sapiens, UniProt P03372);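 note: potency for inhibiting coactivator peptide recruitment to the receptor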
T2 sequence (P03372 whole entry): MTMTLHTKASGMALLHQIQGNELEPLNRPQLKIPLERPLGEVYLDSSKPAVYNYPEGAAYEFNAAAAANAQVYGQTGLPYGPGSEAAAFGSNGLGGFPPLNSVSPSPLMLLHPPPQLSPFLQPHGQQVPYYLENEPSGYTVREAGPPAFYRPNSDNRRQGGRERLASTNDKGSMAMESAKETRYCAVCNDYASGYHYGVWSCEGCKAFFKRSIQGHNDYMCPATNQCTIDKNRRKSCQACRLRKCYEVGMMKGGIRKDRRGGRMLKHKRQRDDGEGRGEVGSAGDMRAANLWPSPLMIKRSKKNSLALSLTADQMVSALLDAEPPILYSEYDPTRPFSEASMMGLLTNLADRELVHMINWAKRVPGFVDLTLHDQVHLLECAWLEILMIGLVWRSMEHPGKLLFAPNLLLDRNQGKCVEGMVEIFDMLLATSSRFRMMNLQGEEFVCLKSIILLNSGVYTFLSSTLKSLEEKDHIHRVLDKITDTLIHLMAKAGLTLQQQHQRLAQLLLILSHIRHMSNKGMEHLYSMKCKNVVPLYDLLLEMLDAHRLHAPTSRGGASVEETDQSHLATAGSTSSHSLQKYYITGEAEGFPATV

cells [3] = assay: cells
[4] = target: Peroxisome proliferator-activated receptor gamma/Nuclear receptor coactivator 2 (Homo sapiens, UniProt P37231); assay: (§1) TR-FRET dose response biochemical High Throughput Screening assay for agonists of the steroid receptor coactivator 2 (SRC-2) recruitment by the peroxisome proliferator-activated receptor gamma (PPAR gamma): non-selective agonists. [Related pubchem assays: 1297, 1032 ]; format: functional
[5] = target: Peroxisome proliferator-activated receptor gamma/Nuclear receptor coactivator 1 (Homo sapiens, UniProt P37231); assay: as §1, with “1 (SRC-1)” for “2 (SRC-2)”, “assays (depositor defined):AID1300, AID1808, AID504735, AID631]” for “assays: 1297, 1032 ]”; format: protein assay
[6] = target: Peroxisome proliferator-activated receptor gamma/Nuclear receptor coactivator 3 (Homo sapiens, UniProt P37231); assay: as §1, with “3 (SRC-3)” for “2 (SRC-2)”, “1301 (Confirmation screen.), 1048 (Primary screen.)]” for “1297, 1032 ]”; format: functional
[7] = target: Glucose-6-phosphate 1-dehydrogenase (Homo sapiens, UniProt P11413); assay: inhibition of Homo sapiens G6PD, dose series – biochemical, fluorescence, selectivity assay for P. falciparum G6PD inhibitor project, dose response (AID 504792); format: functional
cells [8] = format: functional
[9] = target: T3, Heat shock factor protein 1 (Mus musculus, UniProt P38532); assay: decrease of HSF1-responsive luciferase luminescence – cell-based, NIH3T3, dose retest, confirmation (AID 2382); format: functional;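 note: NIH3T3 fibroblasts with HSF1-driven luciferase reporter stressed by proteasome inhibitor MG132; luminescence from HSF1-driven luciferase expression after 8 hours of MG132 stress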
T3 sequence (P38532 whole entry): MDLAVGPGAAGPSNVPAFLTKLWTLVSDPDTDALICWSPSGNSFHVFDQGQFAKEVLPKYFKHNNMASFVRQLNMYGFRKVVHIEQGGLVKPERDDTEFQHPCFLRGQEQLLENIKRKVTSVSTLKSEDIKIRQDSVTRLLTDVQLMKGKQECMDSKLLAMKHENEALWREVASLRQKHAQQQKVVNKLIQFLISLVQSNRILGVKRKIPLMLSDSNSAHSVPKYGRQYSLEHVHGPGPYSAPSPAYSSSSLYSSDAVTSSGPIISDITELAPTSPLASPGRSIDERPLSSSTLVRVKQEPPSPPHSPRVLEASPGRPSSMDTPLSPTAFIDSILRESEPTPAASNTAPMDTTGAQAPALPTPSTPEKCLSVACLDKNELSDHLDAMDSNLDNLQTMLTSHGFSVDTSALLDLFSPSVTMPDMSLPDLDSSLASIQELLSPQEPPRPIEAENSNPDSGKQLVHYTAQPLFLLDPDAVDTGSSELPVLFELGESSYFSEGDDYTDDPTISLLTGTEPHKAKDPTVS

Cytochrome P450 1A2 = target: T4, Cytochrome P450 1A2 (Homo sapiens, UniProt P05177);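 note: PubChem cytochrome P450 panel assay, CYP1A2 panel member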
T4 sequence (P05177 whole entry): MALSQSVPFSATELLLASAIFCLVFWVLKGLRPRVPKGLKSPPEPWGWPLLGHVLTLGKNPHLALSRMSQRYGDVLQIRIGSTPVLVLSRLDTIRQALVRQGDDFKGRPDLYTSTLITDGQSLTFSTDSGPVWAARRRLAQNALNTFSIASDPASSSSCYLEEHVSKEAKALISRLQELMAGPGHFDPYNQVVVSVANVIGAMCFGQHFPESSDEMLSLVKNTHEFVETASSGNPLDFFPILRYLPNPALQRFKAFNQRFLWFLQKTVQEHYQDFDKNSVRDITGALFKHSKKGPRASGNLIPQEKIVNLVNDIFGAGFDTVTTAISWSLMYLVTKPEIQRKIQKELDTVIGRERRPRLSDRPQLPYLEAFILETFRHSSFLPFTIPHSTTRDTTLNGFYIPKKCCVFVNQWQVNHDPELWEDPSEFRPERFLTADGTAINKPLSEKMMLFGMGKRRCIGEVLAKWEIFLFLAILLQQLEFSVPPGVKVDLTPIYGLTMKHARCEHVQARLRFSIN

Cytochrome P450 3A4 = Cytochrome P450 3A4 (Homo sapiens, UniProt P08684);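 note: CYP3A4 tested as one member of a cytochrome P450 panel screen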
Cytochrome P450 2C9 = Cytochrome P450 2C9 (Homo sapiens, UniProt P11712)
Estrogen receptor beta = Estrogen receptor beta (Homo sapiens, UniProt Q92731);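 note: recombinant ER-beta bound to coactivator SRC1 peptide in presence of estradiol agonist; inhibitors block coactivator peptide binding and lower the FRET signal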

Chain of Peroxisome proliferator-activated receptor gamma/Nuclear receptor coactivator 1 (P37231 whole entry): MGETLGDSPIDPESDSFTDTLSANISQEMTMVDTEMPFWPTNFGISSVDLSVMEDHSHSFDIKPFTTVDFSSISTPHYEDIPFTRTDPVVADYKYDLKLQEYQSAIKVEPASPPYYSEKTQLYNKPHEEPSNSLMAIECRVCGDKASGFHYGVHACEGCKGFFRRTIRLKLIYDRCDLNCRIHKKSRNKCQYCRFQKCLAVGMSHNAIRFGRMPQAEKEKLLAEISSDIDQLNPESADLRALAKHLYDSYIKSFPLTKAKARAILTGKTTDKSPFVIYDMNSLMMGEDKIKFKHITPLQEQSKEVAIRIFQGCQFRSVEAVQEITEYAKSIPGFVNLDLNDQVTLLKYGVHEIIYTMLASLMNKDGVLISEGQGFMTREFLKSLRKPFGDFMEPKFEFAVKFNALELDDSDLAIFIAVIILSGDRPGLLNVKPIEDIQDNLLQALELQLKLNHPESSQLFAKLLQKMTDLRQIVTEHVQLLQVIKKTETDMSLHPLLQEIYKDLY
Chain of Peroxisome proliferator-activated receptor gamma/Nuclear receptor coactivator 1 (Q15788 whole entry, further chain): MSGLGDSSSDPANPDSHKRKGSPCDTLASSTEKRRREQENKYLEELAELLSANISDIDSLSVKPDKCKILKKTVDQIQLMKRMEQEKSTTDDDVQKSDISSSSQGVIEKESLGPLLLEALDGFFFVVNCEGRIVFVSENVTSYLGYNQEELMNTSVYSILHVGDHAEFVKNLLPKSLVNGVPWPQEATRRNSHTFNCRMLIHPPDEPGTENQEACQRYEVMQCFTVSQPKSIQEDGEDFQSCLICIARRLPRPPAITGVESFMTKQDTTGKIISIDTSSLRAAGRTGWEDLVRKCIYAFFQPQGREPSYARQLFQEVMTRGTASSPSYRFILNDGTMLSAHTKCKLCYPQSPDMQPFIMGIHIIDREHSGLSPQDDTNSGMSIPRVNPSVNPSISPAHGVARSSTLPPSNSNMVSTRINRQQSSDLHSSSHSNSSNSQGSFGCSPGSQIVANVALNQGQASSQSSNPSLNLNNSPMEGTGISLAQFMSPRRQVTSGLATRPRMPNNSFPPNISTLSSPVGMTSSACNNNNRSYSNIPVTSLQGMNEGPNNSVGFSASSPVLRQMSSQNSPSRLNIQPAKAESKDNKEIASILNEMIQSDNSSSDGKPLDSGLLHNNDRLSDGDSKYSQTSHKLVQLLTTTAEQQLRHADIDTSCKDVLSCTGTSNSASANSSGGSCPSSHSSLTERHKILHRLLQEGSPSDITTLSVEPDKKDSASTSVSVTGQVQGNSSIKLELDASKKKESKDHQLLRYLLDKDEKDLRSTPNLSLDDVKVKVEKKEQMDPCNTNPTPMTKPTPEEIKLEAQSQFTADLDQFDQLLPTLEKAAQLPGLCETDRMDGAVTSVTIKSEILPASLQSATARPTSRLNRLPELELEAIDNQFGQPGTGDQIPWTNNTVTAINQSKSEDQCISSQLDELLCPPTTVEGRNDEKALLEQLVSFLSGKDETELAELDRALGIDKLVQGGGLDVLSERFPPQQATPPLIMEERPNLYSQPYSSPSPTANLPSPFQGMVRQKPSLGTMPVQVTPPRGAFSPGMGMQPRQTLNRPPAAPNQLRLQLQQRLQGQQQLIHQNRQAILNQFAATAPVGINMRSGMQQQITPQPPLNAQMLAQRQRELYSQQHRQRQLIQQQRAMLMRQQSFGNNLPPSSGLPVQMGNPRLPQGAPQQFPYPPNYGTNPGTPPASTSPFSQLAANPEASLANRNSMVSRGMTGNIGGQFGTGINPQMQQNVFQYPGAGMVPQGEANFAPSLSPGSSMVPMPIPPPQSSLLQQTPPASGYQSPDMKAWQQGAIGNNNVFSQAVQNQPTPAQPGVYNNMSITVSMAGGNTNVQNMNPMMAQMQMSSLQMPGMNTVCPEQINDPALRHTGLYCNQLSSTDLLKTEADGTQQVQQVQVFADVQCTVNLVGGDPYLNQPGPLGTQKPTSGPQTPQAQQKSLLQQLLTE
Chain of Peroxisome proliferator-activated receptor gamma/Nuclear receptor coactivator 2 (P37231 whole entry): as the sequence (P37231 whole entry) above
Chain of Peroxisome proliferator-activated receptor gamma/Nuclear receptor coactivator 2 (Q15596 whole entry, further chain): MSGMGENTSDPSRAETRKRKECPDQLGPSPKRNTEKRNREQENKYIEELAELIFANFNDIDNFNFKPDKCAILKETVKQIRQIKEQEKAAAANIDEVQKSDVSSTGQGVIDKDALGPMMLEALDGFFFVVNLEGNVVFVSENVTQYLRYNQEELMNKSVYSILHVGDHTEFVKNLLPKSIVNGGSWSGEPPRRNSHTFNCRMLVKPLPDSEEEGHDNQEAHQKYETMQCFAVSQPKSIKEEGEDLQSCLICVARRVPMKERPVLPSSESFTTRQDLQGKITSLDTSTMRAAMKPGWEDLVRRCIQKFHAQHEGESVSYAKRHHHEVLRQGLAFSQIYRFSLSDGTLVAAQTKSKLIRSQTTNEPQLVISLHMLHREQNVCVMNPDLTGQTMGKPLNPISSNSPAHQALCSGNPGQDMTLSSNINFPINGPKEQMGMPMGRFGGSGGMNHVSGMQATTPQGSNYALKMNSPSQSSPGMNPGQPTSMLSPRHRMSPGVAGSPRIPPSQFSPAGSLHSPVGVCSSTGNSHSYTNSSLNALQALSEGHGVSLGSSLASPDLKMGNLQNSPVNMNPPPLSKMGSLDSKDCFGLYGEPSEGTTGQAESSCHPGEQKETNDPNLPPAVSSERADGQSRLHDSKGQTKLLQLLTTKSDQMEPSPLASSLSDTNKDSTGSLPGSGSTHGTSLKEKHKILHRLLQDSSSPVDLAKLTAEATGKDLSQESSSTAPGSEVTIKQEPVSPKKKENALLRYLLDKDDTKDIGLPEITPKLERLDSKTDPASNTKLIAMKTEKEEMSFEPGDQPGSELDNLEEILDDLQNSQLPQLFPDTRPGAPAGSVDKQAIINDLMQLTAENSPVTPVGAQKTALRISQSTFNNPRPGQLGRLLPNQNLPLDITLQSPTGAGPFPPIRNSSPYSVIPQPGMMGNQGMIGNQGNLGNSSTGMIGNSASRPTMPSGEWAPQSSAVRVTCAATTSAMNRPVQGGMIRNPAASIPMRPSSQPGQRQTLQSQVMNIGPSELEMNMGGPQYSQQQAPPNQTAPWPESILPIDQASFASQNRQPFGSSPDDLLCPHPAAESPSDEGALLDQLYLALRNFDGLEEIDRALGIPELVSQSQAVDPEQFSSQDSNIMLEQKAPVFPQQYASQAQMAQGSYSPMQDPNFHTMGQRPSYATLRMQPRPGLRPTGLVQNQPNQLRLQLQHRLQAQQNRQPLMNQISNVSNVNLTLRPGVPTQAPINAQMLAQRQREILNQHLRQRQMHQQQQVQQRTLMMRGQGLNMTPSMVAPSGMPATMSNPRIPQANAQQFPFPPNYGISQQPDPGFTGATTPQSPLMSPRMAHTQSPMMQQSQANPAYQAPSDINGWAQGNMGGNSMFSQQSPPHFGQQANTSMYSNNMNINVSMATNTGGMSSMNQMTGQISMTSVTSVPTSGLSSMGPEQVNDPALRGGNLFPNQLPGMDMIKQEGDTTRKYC
Chain of Glucose-6-phosphate 1-dehydrogenase (P11413 whole entry): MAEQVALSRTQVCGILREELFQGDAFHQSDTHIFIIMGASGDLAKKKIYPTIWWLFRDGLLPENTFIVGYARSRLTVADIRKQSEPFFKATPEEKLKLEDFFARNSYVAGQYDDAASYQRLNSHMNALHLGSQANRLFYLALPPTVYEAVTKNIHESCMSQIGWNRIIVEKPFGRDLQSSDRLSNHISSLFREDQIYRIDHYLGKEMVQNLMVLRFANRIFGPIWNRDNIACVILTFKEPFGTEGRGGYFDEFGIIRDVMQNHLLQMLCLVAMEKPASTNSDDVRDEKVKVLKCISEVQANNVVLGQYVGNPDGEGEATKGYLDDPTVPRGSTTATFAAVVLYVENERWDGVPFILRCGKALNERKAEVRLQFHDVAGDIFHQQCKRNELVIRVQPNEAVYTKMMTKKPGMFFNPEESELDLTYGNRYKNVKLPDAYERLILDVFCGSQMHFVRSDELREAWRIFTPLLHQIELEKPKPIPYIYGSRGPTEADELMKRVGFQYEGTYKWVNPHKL
Chain of Cytochrome P450 3A4 (P08684 whole entry): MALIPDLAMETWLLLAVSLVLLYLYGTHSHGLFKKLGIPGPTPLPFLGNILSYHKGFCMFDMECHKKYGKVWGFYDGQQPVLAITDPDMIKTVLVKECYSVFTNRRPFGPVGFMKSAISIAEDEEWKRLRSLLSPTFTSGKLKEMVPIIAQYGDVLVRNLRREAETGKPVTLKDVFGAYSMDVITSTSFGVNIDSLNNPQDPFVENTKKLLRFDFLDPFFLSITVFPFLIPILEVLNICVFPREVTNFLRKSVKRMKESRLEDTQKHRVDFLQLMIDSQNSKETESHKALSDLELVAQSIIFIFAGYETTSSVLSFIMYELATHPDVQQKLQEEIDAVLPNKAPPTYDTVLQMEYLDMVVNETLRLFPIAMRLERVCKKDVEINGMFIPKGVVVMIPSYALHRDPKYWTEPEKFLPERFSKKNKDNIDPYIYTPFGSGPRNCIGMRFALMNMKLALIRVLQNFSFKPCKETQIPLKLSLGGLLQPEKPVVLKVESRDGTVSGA

SMILES: CC(=O)c1ccc2oc3ccccc3c(=O)c2c1
- AC50 (HeLa): 41 µM (active)

SMILES: CN(C(=O)c1cc(-c2ccccc2)on1)C1CCCCC1
- AC50 (HeLa): > 350 µM (inactive)

SMILES: Cn1nc(-c2ccc(C(=O)Nc3ccc(F)cc3)cc2)c2ccccc2c1=O
- IC50 [1]: 10.4 µM (active)

SMILES: Cc1[nH]c2ccc(-c3nnc(SCC(=O)c4ccccc4F)o3)cc2c1C
- CC50 [2]: 32.8 µM (active)
- IC50 (Estrogen receptor): 26 µM (active)
- IC50 (cells [3]): 40.7 µM (active)

SMILES: CCn1c(=O)cc(SCC(=O)NCCN2CCN(Cc3ccccc3)CC2)c2ccccc21
- EC50 [4]: > 79.4 µM (not active)
- EC50 [5]: > 79.4 µM (inactive)
- EC50 [6]: > 79.4 µM (not active)

SMILES: CN1CCN(C(=S)c2ccc([N+](=O)[O-])cc2)CC1
- IC50 [7]: > 80 µM (inactive)

SMILES: Cc1ccc(NCCC(=O)c2cccs2)cc1C
- IC50 (cells [8]): 20.7 µM (active)
- AC50 (HeLa): > 350 µM (inactive)

SMILES: Cc1[nH]c(C)c(S(=O)(=O)N2CCN(c3cccc(Cl)c3)CC2)c1C(=O)N1CCCCC1
- CC50 [2]: 29.3 µM (active)
- IC50 (cells [3]): 31.5 µM (active)

SMILES: COc1cccc(-c2c(C(=O)N/N=C/c3ccc(C)s3)nnn2-c2nonc2N)c1
- IC50 [7]: > 80 µM (inactive)
- EC50 [9]: > 195 µM (not active)

SMILES: COc1c(C)cccc1C(=O)NC(=S)Nc1cccc2nsnc12
- EC50 [4]: 4.14 µM (active)
- EC50 [5]: 3.68 µM (active)
- EC50 [6]: 39.5 µM (not active)

SMILES: COc1ccccc1OCCn1c(SCC(=O)O)nc2ccccc21
- IC50 [1]: 6.47 µM (active)

SMILES: CCOc1ccc(NC(=O)CSc2ncnc3c2sc2ccccc23)cc1
- EC50 [4]: 32 µM (not active)
- EC50 [5]: > 79.4 µM (inactive)
- EC50 [6]: 81.4 µM (not active)

SMILES: CC(=N)/C(C#N)=C(/O)COc1ncnc2ccc(Br)cc12
- AC50 (Cytochrome P450 1A2): 0.0316 µM (inconclusive)
- AC50 (Cytochrome P450 3A4): 17.8 µM (inconclusive)
- IC50 (cells [3]): 1.14 µM (active)
- AC50 (Cytochrome P450 2C9): 11.2 µM (inconclusive)

SMILES: CSc1cnn(Cc2ccccc2)c(=O)c1SCc1ccccc1
- EC50 [4]: 7.94 µM (active)
- EC50 [5]: 3.27 µM (active)
- EC50 [6]: > 79.4 µM (not active)

SMILES: O=C1c2ccccc2/C(=C\C#Cc2ccccn2)N1c1ccccc1
- AC50 (HeLa): 42.6 µM (active)

SMILES: COc1ccccc1Nc1nc(-c2cccc([N+](=O)[O-])c2)cs1
- CC50 [2]: 25.1 µM (active)
- IC50 (cells [3]): 12.3 µM (active)

SMILES: CN1CC2(C)CN(C(c3ccccc3)c3ccccc3)CC(C)(C1)C2O (centres undefined)
- IC50 (Estrogen receptor beta): > 50 µM (not active)
